# Patent publication US12384770B2, “Heterocyclic compound” (Takeda Pharmaceutical Company Limited, priority 2019, dated 2025)
# Biological target: T1, HDAC6 enzyme (Homo sapiens, UniProt Q9UBN7)
# T1 construct: HDAC6 enzyme prepared by transducing full length HDAC6 gene into Sf-9 insect cells; GST; purchased SignalChem; host or cells: Sf-9 insect cells
# T1 sequence (Q9UBN7 1-1215): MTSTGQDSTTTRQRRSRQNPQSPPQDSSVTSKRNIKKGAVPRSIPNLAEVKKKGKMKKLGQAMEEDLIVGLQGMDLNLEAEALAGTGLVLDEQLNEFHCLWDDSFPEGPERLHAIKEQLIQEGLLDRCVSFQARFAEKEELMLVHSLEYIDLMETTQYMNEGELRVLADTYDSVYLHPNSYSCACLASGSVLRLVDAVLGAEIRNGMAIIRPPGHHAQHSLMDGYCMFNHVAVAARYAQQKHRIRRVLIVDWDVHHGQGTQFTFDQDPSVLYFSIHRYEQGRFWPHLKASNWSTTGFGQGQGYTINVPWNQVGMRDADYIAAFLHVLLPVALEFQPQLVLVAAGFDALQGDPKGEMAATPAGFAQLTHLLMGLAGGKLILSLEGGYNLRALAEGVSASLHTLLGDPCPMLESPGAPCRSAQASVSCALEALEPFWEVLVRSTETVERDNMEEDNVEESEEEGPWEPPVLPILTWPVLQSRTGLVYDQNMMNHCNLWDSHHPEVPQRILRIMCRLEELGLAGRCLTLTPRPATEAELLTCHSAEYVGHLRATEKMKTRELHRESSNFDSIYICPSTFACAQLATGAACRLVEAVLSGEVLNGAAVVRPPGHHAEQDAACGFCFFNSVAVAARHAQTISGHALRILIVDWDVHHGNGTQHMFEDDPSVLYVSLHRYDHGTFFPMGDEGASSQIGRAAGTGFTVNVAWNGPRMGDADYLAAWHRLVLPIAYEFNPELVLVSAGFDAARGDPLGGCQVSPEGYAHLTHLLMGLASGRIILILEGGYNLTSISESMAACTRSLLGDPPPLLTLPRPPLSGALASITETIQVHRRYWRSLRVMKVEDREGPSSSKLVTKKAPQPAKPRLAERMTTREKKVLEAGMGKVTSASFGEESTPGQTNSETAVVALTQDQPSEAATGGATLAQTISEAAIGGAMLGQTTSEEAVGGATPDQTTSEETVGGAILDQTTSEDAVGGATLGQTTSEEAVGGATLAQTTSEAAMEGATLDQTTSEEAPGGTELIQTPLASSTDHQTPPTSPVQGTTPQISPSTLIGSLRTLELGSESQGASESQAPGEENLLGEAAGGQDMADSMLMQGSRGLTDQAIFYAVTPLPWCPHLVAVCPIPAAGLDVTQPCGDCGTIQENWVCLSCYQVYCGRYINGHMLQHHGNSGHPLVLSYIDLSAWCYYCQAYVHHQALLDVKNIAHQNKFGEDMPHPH
# Assay: HDAC6 enzyme inhibitory assay (HDAC-Glo I/II Assay kit)
# Type: biochemical
# Details: wells without enzyme = 100% inhibition
# Method: Experimental Example 1 HDAC6 Enzyme Inhibitory Assay
# HDAC6 enzyme prepared by transducing full length HDAC6 gene into Sf-9 insect cells and purifying by GST affinity column were purchased from SignalChem. Using this enzyme, HDAC6 enzyme inhibitory activity of the compound of the present invention were evaluated. Enzymes were used after preserved at −70° C. HDAC6 enzyme inhibitory activity of the compound of the present invention was measured using HDAC-Glo™ I/II Assay kit (Promega) according to the following experimental method. The test compound diluted with assay buffer (24 mM Tris-HCl (pH 7.5), 1 mM MgCl2, 0.35 mM KCl, 135 mM NaCl, 0.6 mM Glutathione, 0.01% Tween-20) was added to a 384-well plate by each 2 μL. Then, HDAC6 enzyme solution diluted with assay buffer was added thereto by each 4 μL, and the plate was incubated at room temperature for 60 min. After incubated, HDAC substrate-Developer solution prepared according to Promega protocol attached to the assay kit was added to the 384-well plate by each 2 μL, and the enzyme reaction was started. After reacting at room temperature for 20 min, luminescence level was measured using plate reader Envision (PerkinElmer). The inhibitory activity of each compound of Example was calculated as a relative activity value when luminescence level in wells without enzyme is considered as 100% inhibition.
row,HDAC6 inhibitory rate (%) (10 μM),Compound
1,100%,"O=C1c2cc(-c3nnc(C(F)F)o3)ccc2CN1[C@H](c1cnccn1)[C@@H](O)c1ccc(F)c(F)c1 (single isomer, unassigned) [Example 86, 6-[5-(difluoromethyl)-1,3,4-oxadiazol-2-yl]-2-[(1R*,2S*)-2-(3,4-difluorophenyl)-2-hydroxy-1-(pyrazin-2-yl)ethyl]-2,3-dihydro-1H-isoindol-1-one]"

# Same assay, conditions: wells without enzyme = 100% inhibition, 10 µM
row,HDAC6 inhibitory rate (%) (10 μM),Compound
1,102%,"O=C1c2cc(-c3nnc(C(F)F)o3)ccc2CN1[C@H](c1cccc(F)n1)[C@@H](O)c1cccc(F)n1 (single isomer, unassigned) [Example 118, 2-[(1R*,2R*)-1,2-bis(6-fluoropyridin-2-yl)-2-hydroxyethyl]-6-[5-(difluoromethyl)-1,3,4-oxadiazol-2-yl]-2,3-dihydro-1H-isoindol-1-one]"
2,100%,"O=C1c2cc(-c3nnc(C(F)F)o3)ccc2CN1[C@H](C1CCOCC1)[C@@H](O)c1ccc(Cl)cc1 (single isomer, unassigned) [Example 84, 2-[(1R*,2S*)-2-(4-chlorophenyl)-2-hydroxy-1-(oxan-4-yl)ethyl]-6-[5-(difluoromethyl)-1,3,4-oxadiazol-2-yl]-2,3-dihydro-1H-isoindol-1-one]"

# Same assay, conditions: wells without enzyme = 100% inhibition, read-out: HDAC6 inhibitory rate (%) (10 μM)
row,inhibition at 10 µM,Compound
1,101%,"O=C1c2cc(-c3nnc(C(F)F)o3)ccc2CN1[C@H](c1ccccc1C(F)(F)F)[C@@H](O)c1ccccn1 (racemic) [Example 39, 6-[5-(difluoromethyl)-1,3,4-oxadiazol-2-yl]-2-{(1RS,2RS)-2-hydroxy-2-(pyridin-2-yl)-1-[2-(trifluoromethyl)phenyl]ethyl}-2,3-dihydro-1H-isoindol-1-one]"
2,100%,"O=C1c2cc(-c3nnc(C(F)F)o3)ccc2CN1[C@H](c1cnccn1)[C@@H](O)c1ccc(F)cc1 (single isomer, unassigned) [Example 98, 6-[5-(difluoromethyl)-1,3,4-oxadiazol-2-yl]-2-[(1R*,2S*)-2-(4-fluorophenyl)-2-hydroxy-1-(pyrazin-2-yl)ethyl]-2,3-dihydro-1H-isoindol-1-one]"
3,101%,"O=C1c2cc(-c3nnc(C(F)F)o3)ccc2CN1[C@H](C1CCOCC1)[C@@H](O)c1cccc(Cl)c1 (single isomer, unassigned) [Example 70, 2-[(1R*,2S*)-2-(3-chlorophenyl)-2-hydroxy-1-(oxan-4-yl)ethyl]-6-[5-(difluoromethyl)-1,3,4-oxadiazol-2-yl]-2,3-dihydro-1H-isoindol-1-one]"
4,99%,"O=C1c2cc(-c3nnc(C(F)F)o3)ccc2CN1[C@H](c1ccc(F)cc1F)[C@@H](O)c1ccc(F)cc1 (single isomer, unassigned) [Example 32, 6-[5-(difluoromethyl)-1,3,4-oxadiazol-2-yl]-2-[(1R*,2S*)-1-(2,4-difluorophenyl)-2-(4-fluorophenyl)-2-hydroxyethyl]-2,3-dihydro-1H-isoindol-1-one]"
5,101%,"O=C1c2cc(-c3nnc(C(F)F)o3)ccc2CN1[C@H](C1CCOCC1)[C@@H](O)c1ccc(F)c(Cl)c1 (racemic) [Example 107, 2-[(1RS,2SR)-2-(3-chloro-4-fluorophenyl)-2-hydroxy-1-(oxan-4-yl)ethyl]-6-[5-(difluoromethyl)-1,3,4-oxadiazol-2-yl]-2,3-dihydro-1H-isoindol-1-one]"
6,101%,"O=C1c2cc(-c3nnc(C(F)F)o3)ccc2CN1[C@H](c1cccc(F)n1)[C@@H](O)c1ccc(F)cn1 (single isomer, unassigned) [Example 126, 6-[5-(difluoromethyl)-1,3,4-oxadiazol-2-yl]-2-[(1R*,2R*)-2-(5-fluoropyridin-2-yl)-1-(6-fluoropyridin-2-yl)-2-hydroxyethyl]-2,3-dihydro-1H-isoindol-1-one]"
7,100%,"CCOc1ccc([C@H](O)[C@@H](c2ccccc2)N2Cc3ccc(-c4nnc(C(F)F)o4)cc3C2=O)cn1 (racemic) [Example 44, 6-[5-(difluoromethyl)-1,3,4-oxadiazol-2-yl]-2-[(1RS,2SR)-2-(6-ethoxypyridin-3-yl)-2-hydroxy-1-phenylethyl]-2,3-dihydro-1H-isoindol-1-one]"
8,100%,"O=C1c2cc(-c3nnc(C(F)F)o3)ccc2CN1[C@H](c1ncccn1)[C@@H](O)c1ccc(F)c(F)c1 (single isomer, unassigned) [Example 94, 6-[5-(difluoromethyl)-1,3,4-oxadiazol-2-yl]-2-[(1R*,2S*)-2-(3,4-difluorophenyl)-2-hydroxy-1-(pyrimidin-2-yl)ethyl]-2,3-dihydro-1H-isoindol-1-one]"
9,99%,"O=C1c2cc(-c3nnc(C(F)F)o3)ccc2CN1[C@@H](c1ccc(F)cc1)[C@@H](O)c1ccccc1 (racemic) [Example 138, 6-[5-(difluoromethyl)-1,3,4-oxadiazol-2-yl]-2-[(1SR,2SR)-1-(4-fluorophenyl)-2-hydroxy-2-phenylethyl]-2,3-dihydro-1H-isoindol-1-one]"
10,100%,"O=C1c2cc(-c3nnc(C(F)F)o3)ccc2CN1[C@H](c1ccccc1)[C@@H](O)c1cccc(F)c1 (racemic) [Example 23, 6-[5-(difluoromethyl)-1,3,4-oxadiazol-2-yl]-2-[(1RS,2SR)-2-(3-fluorophenyl)-2-hydroxy-1-phenylethyl]-2,3-dihydro-1H-isoindol-1-one]"
11,100%,"O=C1c2cc(-c3nnc(C(F)F)o3)ccc2CN1[C@H](c1ccccn1)[C@@H](O)c1cccc(F)c1 (single isomer, unassigned) [Example 61, 6-[5-(difluoromethyl)-1,3,4-oxadiazol-2-yl]-2-[(1R*,2S*)-2-(3-fluorophenyl)-2-hydroxy-1-(pyridin-2-yl)ethyl]-2,3-dihydro-1H-isoindol-1-one]"
12,100%,"Cn1cc([C@H]([C@@H](O)c2ccc(F)cc2)N2Cc3ccc(-c4nnc(C(F)F)o4)cc3C2=O)cn1 (racemic) [Example 43, 6-[5-(difluoromethyl)-1,3,4-oxadiazol-2-yl]-2-[(1RS,2SR)-2-(4-fluorophenyl)-2-hydroxy-1-(1-methyl-1H-pyrazol-4-yl)ethyl]-2,3-dihydro-1H-isoindol-1-one]"
13,95%,"O=C1c2cc(-c3nnc(C(F)F)o3)ccc2CN1[C@@H](c1ccc(F)cc1F)[C@@H](O)c1ccc(F)cc1 (racemic) [Example 146, 6-[5-(difluoromethyl)-1,3,4-oxadiazol-2-yl]-2-[(1SR,2SR)-1-(2,4-difluoro-phenyl)-2-(4-fluorophenyl)-2-hydroxy-ethyl]-2,3-dihydro-1H-isoindol-1-one]"
14,100%,"O=C1c2cc(-c3nnc(C(F)F)o3)ccc2CN1[C@H](c1ncccn1)[C@@H](O)c1cccc(Cl)c1 (racemic) [Example 133, 2-[(1RS,2SR)-2-(3-chlorophenyl)-2-hydroxy-1-(pyrimidin-2-yl)ethyl]-6-[5-(difluoromethyl)-1,3,4-oxadiazol-2-yl]-2,3-dihydro-1H-isoindol-1-one]"
15,100%,"O=C1c2cc(-c3nnc(C(F)F)o3)ccc2CN1[C@H](C1CC1)[C@@H](O)c1cccc(F)c1 [Example 10, 2-[(1R,2S)-1-cyclopropyl-2-(3-fluorophenyl)-2-hydroxyethyl]-6-[5-(difluoromethyl)-1,3,4-oxadiazol-2-yl]-2,3-dihydro-1H-isoindol-1-one]"
